Consider five compounds from ChEMBL document CHEMBL5050844 (2019).

Usually IC50 stands for the point on the concentration scale where inhibition reaches its midpoint. Lower therefore signals inhibition by little substance. A word on the Kd: it is the equilibrium constant for the complex coming apart. Low values mean a tighter complex, high ones a looser complex.

Structures are written as SMILES.

The target of assay [1] is T1, E3 ubiquitin-protein ligase CBL-B (Homo sapiens, UniProt Q13191). Nature of the assay: Inhibition of N-terminal Avi-tagged human CBL-B (36 to 427 residues) incubated with 30 nM Src kinase for 1.5 hrs followed by incubation with fluorescently labeled UbcH5B-Ub for 1 hr and measured by TR-FRET assay. Background: TR-FRET usually uses a lanthanide donor and a delayed reading to cut background.

The target in assay [2] is T1, E3 ubiquitin-protein ligase CBL-B. Description: Binding affinity towards N-terminal biotinylated Avi-tagged human CBL-B (36 to 427 residues) measured by surface plasmon resonance assay.
Assay [3] in a line: Induction of activation of human CD56+ CD3- NK cells co-cultured with human K562 cells in 5:1 ratio and assessed as increase in IFN-gamma secretion at 10 uM measured by ELISA assay. In kind it is functional, Natural killer cell. For orientation: An ELISA detects its analyte on a solid surface through an enzyme-linked reagent.
Assay [4] can be described thus: Induction of activation of human CD56+ CD3- NK cells co-cultured with human K562 cells in 5:1 ratio and assessed as increase in IFN-gamma secretion at 1 uM measured by ELISA assay. In kind it is functional, Natural killer cell.
Assay [5] in a line: Induction of activation of human CD56+ CD3- NK cells co-cultured with human K562 cells in 1:1 ratio and assessed as increase in IFN-gamma secretion at 10 uM measured by ELISA assay. The class given is functional, Natural killer cell.
The nature of assay [6]: Induction of activation of human CD56+ CD3- NK cells co-cultured with human K562 cells in 1:1 ratio and assessed as increase in IFN-gamma secretion at 1 uM measured by ELISA assay. In kind it is functional, Natural killer cell.
The nature of assay [7]: Induction of activation of human CD56+ CD3- NK cells co-cultured with human K562 cells in 5:1 ratio and assessed as increase in TNF-alpha secretion at 10 uM measured by ELISA assay. The class given is functional, Natural killer cell.
A short description of assay [8]: Induction of activation of human CD56+ CD3- NK cells co-cultured with human K562 cells in 5:1 ratio and assessed as increase in TNF-alpha secretion at 1 uM measured by ELISA assay. The class given is functional, Natural killer cell.
A short description of assay [9]: Induction of activation of human CD56+ CD3- NK cells co-cultured with human K562 cells in 1:1 ratio and assessed as increase in TNF-alpha secretion at 10 uM measured by ELISA assay. In kind it is functional, Natural killer cell.
Assay [10] is described as follows: Induction of activation of human CD56+ CD3- NK cells co-cultured with human K562 cells in 1:1 ratio and assessed as increase in TNF-alpha secretion at 1 uM measured by ELISA assay. In kind it is functional, Natural killer cell.
Assay [11] can be described thus: Induction of activation of human CD56+ CD3- NK cells co-cultured with human K562 cells in 5:1 ratio and assessed as increase in MIP1beta secretion at 10 uM measured by ELISA assay. In kind it is functional, Natural killer cell.
A short description of assay [12]: Induction of activation of human CD56+ CD3- NK cells co-cultured with human K562 cells in 5:1 ratio and assessed as increase in MIP1beta secretion at 1 uM measured by ELISA assay. The class given is functional, Natural killer cell.
Assay [13] is described as follows: Induction of activation of human CD56+ CD3- NK cells co-cultured with human K562 cells in 1:1 ratio and assessed as increase in MIP1beta secretion at 10 uM measured by ELISA assay. In kind it is functional, Natural killer cell.
Assay [14] in a line: Induction of activation of human CD56+ CD3- NK cells co-cultured with human K562 cells in 1:1 ratio and assessed as increase in MIP1beta secretion at 1 uM measured by ELISA assay. The class given is functional, Natural killer cell.
In assay [15] the target is T1, E3 ubiquitin-protein ligase CBL-B. Nature of the assay: Inhibition of N-terminal Avi-tagged human CBL-B (36 to 427 residues) incubated with 60 nM Src kinase for 1.5 hrs followed by incubation with fluorescently labeled UbcH5B-Ub for 1 hr and measured by TR-FRET assay. The class given is single protein.
A short description of assay [16]: Induction of anti-CD3/CD28 antibodies-stimulated human T cell activation at 4 uM assessed fold increase in IL-2 secretion measured by ELISA assay. The class given is functional, T cell line.
The nature of assay [17]: Induction of anti-CD3/CD28 antibodies-stimulated human T cell activation at 1 uM assessed fold increase in IL-2 secretion measured by ELISA assay. In kind it is functional, T cell line.
Assay [18] is described as follows: Induction of anti-CD3/CD28 antibodies-stimulated human T cell activation at 0.3 uM assessed fold increase in IL-2 secretion measured by ELISA assay. The class given is functional, T cell line.
Assay [19] is described as follows: Induction of anti-CD3 antibodies-stimulated human T cell activation at 8 uM assessed fold increase in IL-2 secretion measured by ELISA assay. Note: reference of the scale not given here. The class given is functional, T cell line.
The nature of assay [20]: Induction of anti-CD3 antibodies-stimulated human T cell activation at 1 uM assessed fold increase in IL-2 secretion measured by ELISA assay. Note: reference of the scale not given here. In kind it is functional, T cell line.
The nature of assay [21]: Induction of anti-CD3/CD28 antibodies-stimulated human T cell activation at 4 uM assessed fold increase in CD25 expression measured by ELISA assay. In kind it is functional, T cell line.
Assay [22] in a line: Induction of anti-CD3/CD28 antibodies-stimulated human T cell activation at 1 uM assessed fold increase in CD25 expression measured by ELISA assay. The class given is functional, T cell line.
A short description of assay [23]: Induction of anti-CD3/CD28 antibodies-stimulated human T cell activation at 0.3 uM assessed fold increase in CD25 expression measured by ELISA assay. In kind it is functional, T cell line.
Assay [24] in a line: Induction of anti-CD3 antibodies-stimulated human T cell activation at 8 uM assessed fold increase in CD25 expression measured by ELISA assay. Note: reference of the scale not given here. In kind it is functional, T cell line.
Assay [25] can be described thus: Induction of anti-CD3 antibodies-stimulated human T cell activation at 1 uM assessed fold increase in CD25 expression measured by ELISA assay. Note: reference of the scale not given here. In kind it is functional, T cell line.
The nature of assay [26]: Induction of anti-CD3 antibodies-stimulated human CD4+ T cell activation in immunocompetent mouse assessed fold increase in CD25 expression at 90 mg/kg, po administered twice a day. Note: reference of the scale not given here. The class given is functional.
Assay [27] can be described thus: Induction of anti-CD3 antibodies-stimulated human CD4+ T cell activation in immunocompetent mouse assessed fold increase in CD25 expression at 135 mg/kg, po administered twice a day. Note: reference of the scale not given here. In kind it is functional.
Assay [28] is described as follows: Induction of anti-CD3 antibodies-stimulated human CD4+ T cell activation in immunocompetent mouse assessed fold increase in CD25 expression at 180 mg/kg, po administered twice a day. Note: reference of the scale not given here. The class given is functional.
The nature of assay [29]: Induction of anti-CD3 antibodies-stimulated human CD8+ T cell activation in immunocompetent mouse assessed fold increase in CD25 expression at 45 mg/kg, po administered twice a day. Note: reference of the scale not given here. In kind it is functional.
Assay [30] is described as follows: Induction of anti-CD3 antibodies-stimulated human CD8+ T cell activation in immunocompetent mouse assessed fold increase in CD25 expression at 90 mg/kg, ip administered thrice a day. Note: reference of the scale not given here. In kind it is functional.
Assay [31] in a line: Induction of anti-CD3 antibodies-stimulated human CD8+ T cell activation in immunocompetent mouse assessed fold increase in CD25 expression at 90 mg/kg, po administered twice a day. Note: reference of the scale not given here. In kind it is functional.
Assay [32] is described as follows: Induction of anti-CD3 antibodies-stimulated human CD8+ T cell activation in immunocompetent mouse assessed fold increase in CD25 expression at 135 mg/kg, po administered twice a day. Note: reference of the scale not given here. The class given is functional.
Assay [33] is described as follows: Induction of anti-CD3 antibodies-stimulated human CD8+ T cell activation in immunocompetent mouse assessed fold increase in CD25 expression at 180 mg/kg, po administered twice a day. Note: reference of the scale not given here. In kind it is functional.

T1 sequence (Q13191 whole entry, the tested form may be a part): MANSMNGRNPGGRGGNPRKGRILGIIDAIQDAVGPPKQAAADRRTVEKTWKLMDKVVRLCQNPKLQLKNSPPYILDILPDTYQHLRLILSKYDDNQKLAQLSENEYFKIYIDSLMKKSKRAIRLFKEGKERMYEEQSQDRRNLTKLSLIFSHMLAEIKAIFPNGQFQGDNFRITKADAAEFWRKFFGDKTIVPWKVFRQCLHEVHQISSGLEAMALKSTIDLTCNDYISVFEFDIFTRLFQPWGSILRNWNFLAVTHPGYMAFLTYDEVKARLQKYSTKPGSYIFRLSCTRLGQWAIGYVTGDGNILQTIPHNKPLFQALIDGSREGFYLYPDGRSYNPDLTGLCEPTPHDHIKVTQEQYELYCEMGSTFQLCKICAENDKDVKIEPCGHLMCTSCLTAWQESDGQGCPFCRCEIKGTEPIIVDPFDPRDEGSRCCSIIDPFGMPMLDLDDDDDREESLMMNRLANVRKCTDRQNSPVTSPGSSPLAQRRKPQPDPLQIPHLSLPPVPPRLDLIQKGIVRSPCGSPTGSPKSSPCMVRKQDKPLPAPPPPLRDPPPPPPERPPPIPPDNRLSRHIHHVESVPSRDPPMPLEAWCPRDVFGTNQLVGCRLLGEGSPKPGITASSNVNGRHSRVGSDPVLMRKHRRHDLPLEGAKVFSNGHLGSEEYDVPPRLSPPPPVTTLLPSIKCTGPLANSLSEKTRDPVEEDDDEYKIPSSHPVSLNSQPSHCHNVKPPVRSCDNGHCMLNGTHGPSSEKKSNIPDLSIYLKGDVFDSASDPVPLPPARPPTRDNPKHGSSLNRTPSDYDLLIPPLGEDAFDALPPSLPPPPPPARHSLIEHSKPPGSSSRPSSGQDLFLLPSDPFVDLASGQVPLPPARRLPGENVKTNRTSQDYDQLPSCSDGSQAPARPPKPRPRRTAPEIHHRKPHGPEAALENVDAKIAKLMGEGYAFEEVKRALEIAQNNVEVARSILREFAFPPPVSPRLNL

`C[C@@H](Sc1nncn1C)c1cccc(NC(=O)c2ccc3ccccc3n2)c1` registered a half-maximal inhibitory concentration (IC50) in assay [1] of over 10 µM. For the same compound, the equilibrium dissociation constant (Kd) in assay [2] was at least 3 µM. Moreover, the “fold change (FC)” value in assay [3], in [4], in assay [5], in assay [6], in [7] and in assay [8] was “<=1” throughout. Further, the “fold change (FC)” value in assay [9] is reported as “<=1”; in assay [10], “<=1”; in assay [11] it was “<=1”; in assay [12], “<=1”; in assay [13], “<=1”; in [14], 1.01.
The compound `C[C@H](Cc1nncn1C)c1cccc(NC(=O)c2cc(C(=O)N3CC[C@H](O)C3)cc(C(F)(F)F)n2)c1` registered an IC50 in assay [15] of under 0.1 µM. The compound further showed an equilibrium dissociation constant (Kd) in [2] of under 0.1 µM. In addition, the “fold change (FC)” value in assay [16] is “>=7.5”; in assay [17], “>=7.5”; in assay [18], 2.51; in assay [19] it was “>=0.201”; in [20] it was “>=0.201”; in [21], “>=1.76”. Further, the “fold change (FC)” value is 1.51 in assay [22]; 1.31 in assay [23]; “>=1.001” in assay [24]; “>=1.001” in assay [25]; 2.01 in assay [3]; 1.01 in assay [4]. The “fold change (FC)” value in [5] came to 2.01; in assay [6] it was 1.01; in assay [7], 2.01; in [8], 1.01; in assay [9] it was 2.01; in assay [10], 1.01. Moreover, the “fold change (FC)” value in assay [11] is recorded as 2.01; in [12], 1.01; in [13] it was 2.01; in assay [14], 1.01.
As for `Cn1cnnc1C(F)(F)[C@](C)(F)c1cccc(N2Cc3c(cccc3C(F)(F)F)C2=O)c1`, the “fold change (FC)” value in [16] is reported as 2.51; in assay [17] it was 1.01; in assay [18], 1.01; in [19], “>=0.201”; in assay [20], 0.151; in assay [21], 1.01. The “fold change (FC)” value in assay [22] was 1.01; in [23] it was 1.01; in assay [24], “>=1.001”; in [25], 0.601; in [3], 1.01; in assay [4] it was “<=1”. Moreover, the “fold change (FC)” value in assay [5] was 2.01; in [6], 1.01; in assay [7] it was “<=1”; in assay [8] it was “<=1”; in assay [9], 1.01; in assay [10] it was “<=1”. The “fold change (FC)” value in assay [11], in assay [12], in assay [13] and in assay [14] was “<=1” in each case.
As to `Cn1cnnc1C(F)(F)[C@](C)(F)c1cccc(N2Cc3c(cc(CN4CCC(F)(F)C4)cc3C(F)(F)F)C2=O)c1`, the IC50 in [15] is under 0.1 µM. For the same compound, the equilibrium dissociation constant (Kd) in assay [2] is under 0.1 µM. Besides, the “fold change (FC)” value is reported as “>=7.5” in assay [16]; 2.51 in assay [17]; 1.01 in assay [18]; “>=0.201” in assay [19]; 0.101 in assay [20]; 1.31 in assay [21]. In addition, the “fold change (FC)” value in [22] is recorded as 1.01; in assay [23] it was 1.01; in assay [24] it was “>=1.001”; in assay [25] it was 0.801; in assay [26], 1; in [27] it was 1. Besides, the “fold change (FC)” value in [28] was 1; in [29] it was 1; in [30] it was under 1; in [31], under 1; in assay [32], under 1; in assay [33], under 1. Moreover, the “fold change (FC)” value was “>=5” in [3]; 1.01 in assay [4]; “>=5” in [5]; 1.01 in assay [6]; 2.01 in assay [7]; 1.01 in assay [8]. Further, the “fold change (FC)” value is 2.01 in assay [9]; 1.01 in assay [10]; 2.01 in assay [11]; 1.01 in assay [12]; 2.01 in [13]; 1.01 in assay [14].
`Cn1cnnc1CC1(c2cccc(N3Cc4c(cc(CN5CC[C@@H](C#N)C5)cc4C(F)(F)F)C3=O)c2)COC1` showed a half-inhibitory concentration (IC50) in assay [15] of under 0.1 µM. For the same compound, the “fold change (FC)” value in [16] is recorded as “>=7.5”; in assay [17], “>=7.5”; in assay [18], 5; in assay [19], “>=0.201”; in [20], 0.101; in assay [21], 1.31. In addition, the “fold change (FC)” value in [22] is recorded as 1.01; in [23] it was 1.01; in [24], “>=1.001”; in assay [25] it was “>=1.001”; in [26], under 1; in [27], under 1. Further, the “fold change (FC)” value in assay [28], in assay [29], in [30], in assay [31], in assay [32] and in assay [33] was under 1 throughout.
